Source: ChEMBL document CHEMBL3817747 (J Med Chem, 2016)

These compounds were tested against Neuraminidase (Influenza A virus, UniProt B4URF0).
Neuraminidase, sequence (B4URF0 whole entry): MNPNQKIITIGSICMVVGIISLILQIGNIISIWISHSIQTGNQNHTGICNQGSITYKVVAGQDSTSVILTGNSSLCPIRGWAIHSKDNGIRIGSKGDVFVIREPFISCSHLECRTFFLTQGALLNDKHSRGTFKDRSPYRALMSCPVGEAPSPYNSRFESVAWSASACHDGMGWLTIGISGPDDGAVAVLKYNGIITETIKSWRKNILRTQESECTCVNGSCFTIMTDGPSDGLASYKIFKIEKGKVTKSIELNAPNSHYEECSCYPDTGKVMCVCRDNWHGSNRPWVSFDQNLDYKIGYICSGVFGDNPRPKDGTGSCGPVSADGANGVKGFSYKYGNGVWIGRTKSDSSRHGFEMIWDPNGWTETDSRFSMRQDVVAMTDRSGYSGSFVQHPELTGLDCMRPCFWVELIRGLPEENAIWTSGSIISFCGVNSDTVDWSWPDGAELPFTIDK
Type: cell-based, Influenza A virus (A/WSN/1933(H1N1)), HEK293
`CCCCCCOP(=O)(O)[C@H]1C[C@@H](NC(=N)N)[C@H]([C@@H](NC(C)=O)C(CC)CC)[C@@H]1O` showed an IC50 of 0.5 nM.
For `CCCCCCOP(=O)(O)C1=C[C@@H]([C@@H](NC(C)=O)C(CC)CC)[C@H](NC(=N)N)C1`, the IC50 was 1.5 nM.
`CCC(CC)[C@H](NC(C)=O)[C@@H]1C[C@@H](P(=O)(O)O)C[C@H]1NC(=N)N` gave an IC50 of 2.9 nM.
With `CCCCCCOP(=O)(O)[C@@H]1C[C@@H]([C@@H](NC(C)=O)C(CC)CC)[C@H](NC(=N)N)C1` the IC50 was 1.6 nM.
`CCOP(=O)(O)[C@H]1C[C@@H](NC(=N)N)[C@H]([C@@H](NC(C)=O)C(CC)CC)[C@@H]1O` gave an IC50 of 0.9 nM.
Work on `CCOP(=O)(O)[C@@H]1C[C@@H]([C@@H](NC(C)=O)C(CC)CC)[C@H](NC(=N)N)C1` yielded an IC50 of 1 nM.
